Values joined by “and” are separate entries in the source; they are usually repeats but may differ in a detail not shown here. Identical values can stand only once. “Also recorded” adds a separate entry of the source. Like-named read-outs stand apart in the source and are kept apart here.
Tests used:
human TM cells = conditions: ref [33]; cited from earlier work
pro-MMP-1, h-CM cells = test: pro-MMP-1 release from h-CM cells; assay type: cell-based, human; conditions: BK 10 nM to 1 µM, 24 h at 37 °C; n=6
Procedure: (§1) Measurement of extracellular signal-regulated kinase-1/2 phosphorylation and pro-matrix metalloproteinase production
(§2) The release of pro-MMP-1/2/3 in the extracellular medium of h-CM cells exposed to kinin’s, for 24 h at 37 °C [29, 30] was studied next. Thus, h-CM cells isolated from multiple human donor eyes were cultured as described above and then serum-starved for 24 h prior to the addition of any test compound. Cells were incubated with the vehicle or test compound for 24 hours at 37 °C after which the medium was collected and concentrated ten-fold using Centricon concentrators (Millipore Corp., Bellireca, MA). Equal volumes of this concentrate were loaded on 10% SDS-polyacrylamide gels (SDS-PAGE) and the proteins separated and transferred to nitrocellulose membranes. The membranes were then blocked with 5% non-fat dry milk (Bio-Rad Laboratories, Hercules, CA) followed by incubation with antibodies to pro-MMP-1, pro-MMP-2, or pro-MMP-3 for 12 hours at 4 °C with gentle shaking. After washing, these membranes were incubated with appropriate secondary antibodies (HRP-conjugated; dilution 1:3000) for 1 hour at 20 °C. […] For chemiluminescent detection, the membranes were treated with enhanced chemiluminescent reagent (Amersham Pharmacia, Piscataway, NJ) and the signal was quantified using a Bio-Rad Versadoc imaging system (Bio-Rad Laboratories, Hercules, CA).

CHO-B2 cells [1] = assay type: cell-based, Chinese hamster ovary cells, human cloned B2 receptor; conditions: 1 h at 37 °C; enzyme immunoassay; mean ± SEM, 3 to 6 experiments; read-out: PGF2α production in CHO-B2 cells (EC50)
Procedure: (§3) Measurement of prostaglandins in human ciliary muscle and Chinese hamster ovary cells expressing B2 receptors
(§4) This involved stimulating h-CM cells and CHO-B2 cells with various concentrations of test peptides and measuring the release of various PGs in the extracellular medium. The concentration-dependent effects of these peptides on total PGs, and specifically PGE2, PGF2α, and PGD2 release, were studied. Cells were grown as a monolayer in a 24-well plate (precoated with fibronectin) to confluence and subsequently serum-starved overnight before the experiment. On the day of the experiment, just before the drug was added, the wells were aspirated completely, and 990 µl basal medium and 10 µl 100× series of concentrations of the different peptide agonists were added to achieve the desired final concentrations of each compound (e.g., 0.1 nM to 10 µM). […] At the end of the incubation period, the cellular supernatants were collected and stored at −80 °C or used immediately to determine the PG content. Cell supernatants were tested for total PG levels and sub-species of PGs (PGE2, PGF2α, and PGD2) using specific competitive enzyme immunoassays (Cayman Chemical Co., Ann Arbor, MI) as directed in the manufacturer’s recommended protocols using the supplied standards and reagents. The limits of detection for various PGs were as follows: total PGs=29 pg/ml; PGE2=15 pg/ml; PGF2α=9 pg/ml; PGD2=200 pg/ml.

[2] = system: certain endothelial and neuronal cells; conditions: ref [3],[28]; cited from earlier work
h-CM cells [3] = assay type: cell-based, human; conditions: 1 h at 37 °C; enzyme immunoassay; mean ± SEM, 3 to 6 experiments; read-out: PGE2 production in h-CM cells (EC50)
Procedure: as §3, §4

B1 subtype = system: B1 subtype; design: method as in PMID 1313585; conditions: ref [1]; cited from earlier work
cynomolgus monkey eyes = test: IOP after topical ocular dosing in cynomolgus monkeys; assay type: in vivo; conditions: for IOP change (% of control) / IOP: 100 µg topical
Procedure: Intraocular pressure measurements
To extend our in vitro observations of the high density of B2-receptor protein in human and cynomolgus monkey ciliary muscle and non-pigmented ciliary epithelium, we studied the effects of topically administered BK (100 µg total dose in a sterile vehicle) on IOP in normotensive and TM-ablated hypertensive eyes of these animals. […] However, since we could not subject the monkeys to additional studies involving BK delivery to the eye interior, it was decided that intravitreal (ivt) injection of BK into pigmented Dutch-Belt rabbits would be worth pursuing. Thus, after light corneal anesthesia with 0.1% proparacaine, basal IOPs were determined in up to 10 Dutch-Belt rabbits using an Alcon Pneumotonometer (Alcon Laboratories Inc., Fort Worth, TX). After this time, 50 µg of BK (B2 agonist) or Des-Arg^9-BK (B1 agonist) in 20 µl of sterile basal salt solution (BSS plus), or just BSS plus vehicle, was injected ivt into one eye of each rabbit and the IOP determined at various times thereafter. Authors confirm adherence to the ARVO Statement for Animals in Ophthalmic and Vision Research, with all animal studies conducted according the guidelines for Animal Care and Use at Alcon Research Ltd.

B2 subtype = system: B2 subtype; design: method as in PMID 1313585; conditions: ref [1]; cited from earlier work
[4] = system: CHO-B2 cells (human cloned B2 receptor); assay type: cell-based, Chinese hamster ovary cells
Procedure: as §3, §4

primary h-CM cells = assay type: cell-based, human
Procedure: as §3, §4

pro-MMP-2, h-CM cells = test: pro-MMP-2 release from h-CM cells; assay type: cell-based, human; conditions: BK 10 nM to 1 µM, 24 h at 37 °C; n=6
Procedure: as §1, §2

h-CM cells [5] = assay type: cell-based, human; conditions: 1 h at 37 °C; enzyme immunoassay; mean ± SEM, 3 to 6 experiments; read-out: PGF2α production in h-CM cells (EC50)
Procedure: as §3, §4

CHO-B2 cells [6] = assay type: cell-based, Chinese hamster ovary cells, human cloned B2 receptor; conditions: 1 h at 37 °C; enzyme immunoassay; mean ± SEM, 3 to 6 experiments; read-out: PGE2 production in CHO-B2 cells (EC50)
Procedure: as §4

h-TM cells = conditions: ref [23]; cited from earlier work
[7] = normal pressure eyes, 1 h, mean ± SEM, twelve monkeys
[8] = normal pressure eyes, 3 h, mean ± SEM, twelve monkeys
[9] = normal pressure eyes, 6 h, mean ± SEM, twelve monkeys
[10] = normal pressure eyes, 24 h, mean ± SEM, twelve monkeys
[11] = ocular hypertensive eyes, 1 h, mean ± SEM, twelve monkeys
[12] = ocular hypertensive eyes, 3 h, mean ± SEM, twelve monkeys
[13] = ocular hypertensive eyes, 6 h, mean ± SEM, twelve monkeys
[14] = ocular hypertensive eyes, 24 h, mean ± SEM, twelve monkeys

Question: For H-RPPGFSPFR-OH [BK], which “Production of PGs in human TM cells” value (human TM cells) is on record?
Answer: Its value is “produced various PGs”.

Question: And the “pro-MMP-1 release vs basal level” value (pro-MMP-1, h-CM cells)?
Answer: Its value is 3.12±0.46 fold.

Question: And the EC50 (CHO-B2 cells [1])?
Answer: Its EC50 is 0.0321 ± 0.0122 nM.

Question: What about the “Production of NO and cGMP” value [2] of the same substance?
Answer: Its value is “can elicit production of NO and cGMP”.

Question: What about the EC50 (h-CM cells [3]) of the same substance?
Answer: The EC50 was 8.9 ± 0.2 nM.

Question: What about the “Affinity for B1 subtype” value (B1 subtype) of the same substance?
Answer: Its value is “low affinity”.

Question: What about the “IOP effect of topical BK” value (cynomolgus monkey eyes; 100 µg topical ocular, conscious cynomolgus monkeys, normotensive and hypertensive eyes) of the same substance?
Answer: Its value is “failed to alter IOP; also recorded: no remarkable changes in IOP; also recorded: no alteration in IOP; also recorded: failed to modulate IOP”.

Question: And the “IOP change (% of control)” value (cynomolgus monkey eyes; normal pressure eyes, 0 h (baseline))?
Answer: The value was 0%.

Question: What about the IOP (cynomolgus monkey eyes; normal pressure eyes, 0 h (baseline), mean ± SEM, twelve monkeys) of the same substance?
Answer: Its IOP is 27.1±1.0 mmHg.

Question: What about the IOP (cynomolgus monkey eyes; [7]) of the same substance?
Answer: The IOP was 27.1±1.1 mmHg.

Question: And the “IOP change (% of control)” value (cynomolgus monkey eyes; [7])?
Answer: Its value is 0.2±2.5%.

Question: And the IOP (cynomolgus monkey eyes; [8])?
Answer: Its IOP is 26.6±0.7 mmHg.

Question: And the “IOP change (% of control)” value (cynomolgus monkey eyes; [8])?
Answer: The value was −1.0±2.9%.

Question: And the IOP (cynomolgus monkey eyes; [9])?
Answer: The IOP was 27.2±1.1 mmHg.

Question: And the “IOP change (% of control)” value (cynomolgus monkey eyes; [9])?
Answer: The value was 0.8±2.3%.

Question: What about the IOP (cynomolgus monkey eyes; [10]) of the same substance?
Answer: The IOP was 27.8±1.4 mmHg.

Question: And the “IOP change (% of control)” value (cynomolgus monkey eyes; [10])?
Answer: The value was 2.4±3.3%.

Question: And the “IOP change (% of control)” value (cynomolgus monkey eyes; ocular hypertensive eyes, 0 h (baseline))?
Answer: The value was 0%.

Question: And the IOP (cynomolgus monkey eyes; ocular hypertensive eyes, 0 h (baseline), mean ± SEM, twelve monkeys)?
Answer: Its IOP is 36.8±1.6 mmHg.

Question: What about the IOP (cynomolgus monkey eyes; [11]) of the same substance?
Answer: Its IOP is 35.9±1.8 mmHg.

Question: And the “IOP change (% of control)” value (cynomolgus monkey eyes; [11])?
Answer: Its value is −2.6±1.5%.

Question: And the IOP (cynomolgus monkey eyes; [12])?
Answer: Its IOP is 35.7±1.6 mmHg.

Question: And the “IOP change (% of control)” value (cynomolgus monkey eyes; [12])?
Answer: The value was −2.7±3.3%.

Question: And the IOP (cynomolgus monkey eyes; [13])?
Answer: Its IOP is 36.6±1.7 mmHg.

Question: And the “IOP change (% of control)” value (cynomolgus monkey eyes; [13])?
Answer: The value was −0.4±3.0%.

Question: What about the IOP (cynomolgus monkey eyes; [14]) of the same substance?
Answer: The IOP was 35.3±1.6 mmHg.

Question: And the “IOP change (% of control)” value (cynomolgus monkey eyes; [14])?
Answer: The value was −4.1±2.3%.

Question: And the “Affinity for B2 subtype” value (B2 subtype)?
Answer: The value was “high affinity”.

Question: And the EC50 ([4]; 1 h at 37 °C, enzyme immunoassay, mean ± SEM, 3 to 6 experiments, read-out: Total PGs production in CHO-B2 cells (EC50))?
Answer: Its EC50 is 0.0263 ± 0.0066 nM.

Question: What about the “BK-induced total PGs production/secretion, CHO-B2 cells” value ([4]; n=6) of the same substance?
Answer: Its value is 913.6 ± 47.6 pg/mL and 913.6 pg/mL.

Question: And the “Elevation in extracellular PGs, CHO-B2 cells” value ([4]; relative to basal levels)?
Answer: The value was 4.9 fold.

Question: What about the EC50 (primary h-CM cells; 1 h at 37 °C, enzyme immunoassay, mean ± SEM, 3 to 6 experiments, read-out: Total PGs production in h-CM cells (EC50)) of the same substance?
Answer: Its EC50 is 8.6 ± 2.4 nM.

Question: And the “BK-induced total PGs production/secretion, h-CM cells” value (primary h-CM cells; BK 100 nM (0.1 µM) to 10 µM, n=8)?
Answer: Its value is 393.3 ± 24.2 pg/mL and 393.3 pg/mL.

Question: What about the “Total PG secretion above basal levels” value (primary h-CM cells; BK 1 µM, Figure 6A, single experiment) of the same substance?
Answer: Its value is “substantially increased the PGs secreted above the basal levels”.

Question: What about the “pro-MMP-2 release vs basal level” value (pro-MMP-2, h-CM cells) of the same substance?
Answer: Its value is 1.67±0.25 fold.

Question: What about the EC50 (h-CM cells [5]) of the same substance?
Answer: The EC50 was 15.9 ± 9.2 nM.

Question: What about the EC50 (CHO-B2 cells [6]) of the same substance?
Answer: Its EC50 is 0.0328 ± 0.00903 nM.

Question: And the “ERK1/2 phosphorylation in h-TM cells” value (h-TM cells)?
Answer: The value was “stimulate ERK1/2 phosphorylation”.
